Drawing on PubChem BioAssay AID1159557 (GlaxoSmithKline (GSK), 2015), this text covers IC50 for 36 compounds.

The source made the active and inactive calls. The rule behind the calls is not given here. Where only a bound is given, the exact number is not on record here.

The subject of this experiment is Trypanosoma brucei growth inhibition. As to the kind of experiment: T. brucei growth inhibition (AID 1159557).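 Note: parasites exposed to compound for 48 h before the resazurin readout.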
For the compound `O=C(c1cccc(Nc2ncc(-c3ccc4c(c3)OCO4)cn2)c1)N1CCOCC1`, the IC50 (usually the concentration needed to halve the response being measured) was 25 µM.
To `Cc1cc2cc(CNc3ccc4c(c3)OCO4)c(=O)n(CCO)c2cc1C` belongs 25 µM; to `Cn1nccc1-c1cc(OC(CN)c2ccccc2)cnc1-c1ccco1` (stereo unspecified), 13 µM; to `COc1ccc(-c2nc3ccncc3c(=O)n2CCOc2ccccc2)cc1`, 25 µM.
Under `CCN(CC)S(=O)(=O)c1ccc(OC)c(NC(=O)c2ccc([N+](=O)[O-])s2)c1` stands 0.4 µM; under `NCC(Cc1ccccc1)NC(=O)c1cnc(-c2c[nH]c3ncccc23)s1` (stereo unspecified), 0.4 µM.
As to `CCn1c(-c2nonc2N)nc2c([C@@H](C)O)ncc(O[C@H](CN)c3ccccc3)c21`, the IC50 was 0.63 µM.
On to `CCOc1cnn(C)c(=O)c1Nc1ccc(C(=O)NCc2ccc(F)cc2)cc1`, for which the IC50 was > 40 µM (inactive).
For the compound `Nc1nc(-c2ccccc2)cc(-c2nc3ncccc3[nH]2)n1`, the IC50 was 10 µM.
`CC(C)c1nn(-c2nc(N)nc(-c3ccccn3)n2)c(N)c1C1CCCCC1`: the IC50 was 7.9 µM.
To `CNc1nc(C)nc(N2CCc3cc(C(=O)NCc4ccc(-c5nccn5C)cc4Cl)ccc32)n1` belongs 13 µM.
To `COc1cc(NC(=O)Nc2cccc(CNC(=O)OC3CCCCC3)c2)ccc1-c1cnco1` belongs 0.25 µM.
Under `O=C(O)[C@H]1C[C@@H]1c1ccc(-c2ccc(CN(CCc3ccccn3)C(=O)C3CCC3)cc2)cc1` stands 0.63 µM.
For `CCOc1ccc(CN(C)Cc2nc(N)nc(Nc3ccc(C)cc3)n2)cc1`, the IC50 is 2.5 µM.
Under `CC(C)S(=O)(=O)c1ccc(-c2cnc(N)c3cc(-c4ccnc(N)n4)ccc23)cc1` stands 0.2 µM; under `C=CCN(Cc1cccs1)C(=O)CSc1nnc(-c2ccc3c(c2)OCO3)o1`, 20 µM; under `Cc1nc(N2CC(C)OC(C)C2)sc1C(=O)Nc1ccc2c(c1)OCO2` (stereo unspecified), 40 µM.
To `Cc1nc(C(=O)Nc2ccc3c(c2)OCO3)nn1-c1ccc(F)cc1` belongs > 40 µM (inactive); to `O=C(NCc1ccc(-n2cccc2)cc1)c1nc(Cn2ccc([N+](=O)[O-])n2)no1`, > 40 µM (inactive).
Under `COc1ccc(OC)c(S(=O)(=O)N(Cc2c(F)cccc2F)[C@@H]2CCN(C#N)C2)c1` stands 0.63 µM.
With `O=c1ccc2ccc(F)c3c2n1C[C@H]3CN1CCN(CC(O)c2cc3c(cn2)OCS3)CC1` (stereo partly specified), the half-maximal inhibitory concentration (IC50) is 0.2 µM.
Under `CN(Cc1nc2ccc(C(=O)NCC3CCCCC3)cc2[nH]1)C1CCCc2cccnc21` (stereo unspecified) stands 0.79 µM.
To `COc1ccc(C(=O)Nc2ccc(NC(=O)CO)cc2)cc1` belongs 0.25 µM; to `O=S(=O)(NCC(c1cccnc1)N1CCN(c2ccccc2F)CC1)c1ccc(F)cc1` (stereo unspecified), 25 µM.
Regarding `O=C(Nc1ccc(C(=O)N2CCCC2c2ccc3c(c2)OCCCO3)cc1)c1ccco1` (stereo unspecified), the 50% inhibitory concentration (IC50) was 0.2 µM.
Under `COCCn1c(-c2ccccc2)cnc1NCc1ccccc1OC` stands 25 µM.
To `COc1ncc(-c2ccc3nccc(-c4ccncc4)c3c2)cc1NS(=O)(=O)C1CC1` belongs 0.2 µM.
As to `Clc1ccc(Sc2cnccc2N2CCOCC2)cc1`, the IC50 is 25 µM.
To `Cc1ccnc(NS(=O)(=O)c2ccc(NC(=O)c3ccc([N+](=O)[O-])s3)cc2)n1` belongs 0.2 µM.
To `CN(CCOc1ccc(Cl)cc1)Cc1nc(N)nc(N(C)C)n1` belongs 25 µM; to `N#Cc1ccccc1S(=O)(=O)N1CCN(C(=O)CNC(=O)c2ccc3c(c2)OCO3)CC1`, > 40 µM (inactive); to `CN(C)c1ncc(-c2cncn2CCOc2ccc(Cl)cc2)cn1`, > 40 µM (inactive).
To `CC(=O)Nc1nc(-c2cc(C)ccc2C)c(C)s1` belongs > 40 µM (inactive); to `O=C(Cn1cnc2c(-c3ccccc3)csc2c1=O)N1CCCCC1`, 0.79 µM.
Consider `CC1CCCCN1C(=O)NCCc1coc(-c2ccc(F)cc2)n1` (stereo unspecified), for which the IC50 is 0.13 µM.
On to `Cc1ccc(S(C)(=O)=O)cc1Nc1nccc(-c2sc(N)nc2-c2ccccc2)n1`, for which the IC50 was 0.79 µM.
